Where “and” joins values, the source holds several entries; their conditions need not be identical. Equal values may be shown once.
Tests used:
[1] = tested on: splenic lymphocytes B and lymphocytes T; assay: Determination of the number of lymphocytes B and lymphocytes T; format: in vivo, female HAN-NmRI strain mice; conditions: 25, 2.5 and 0.25 μg by injection on 3 consecutive days after Brewer's thioglycolate medium i.p.; spleen isolated day 4
Experimental: (§1) Immunological studies were performed on female HAN-NmRI strain mice of 3-4 weeks, weighing from 18-21 g.
(§2) In tests 1.1 to 1.5, the animals were first administered the Brewer's thioglycolate medium by i.p. injection, which was followed after 6 hours by the injection of 0.5 ml of a solution containing 25 μg, 2.5 μg and 0.25 μg respectively of N-acetyl-muramyl-L-alanyl-D-isoglutamine (muramyl dipeptide, MDP) or of N-(7-oxooctanoyl)-L-alanyl-D-isoglutamine (compound 1, Example 19). Equal doses were administered to the animals on days 2 and 3. On day 4 the animals were sacrificed and the spleen and the peritoneal macrophages were isolated.
To the isolated splenic lymphocytes there were added fluorescein isothiocyanate labelled antimouse antibodies (for the determination of lymphocytes B) and anti-Thy 1 monoclonal antibodies (for the determination of lymphocytes T) respectively. After incubation and rinsing with RPMI 1640 medium (Gibco, Great Britain), the lymphocytes were counted by fluorescence microscopy.

[2] = tested on: splenic lymphocytes (lymphocytes T); assay: Blast transformation of lymphocytes by mithogens (concanavalin A, tritium labelled thymidine incorporation); format: in vivo, female HAN-NmRI strain mice; conditions: for Amount of active thymidine incoporated in lymphocyte DNA (cpm), x ± s.e.m: lymphocytes stimulated in vitro with concanavalin A
Experimental: as §1, §2
Isolated splenic lymphocytes were prepared in a concentration of 1×10^6 /ml in the RPMI 1640 medium, to which there were added 10% of foetal calf serum (FCS) (Sera-Lab, Great Britain), 1 ml of 200 mM L-glutamine solution and 1 ml of an antibiotic solution (100 U/ml of penicillin and 100 μg/ml of streptomycin) for 100 ml of complete medium. To each flat bottom well of a microtitration plate (T grade, Nunc, Denmark) 100 μl of the cell suspension were distributed. The cells were stimulated in vitro by adding concanavalin A (con A) (Pharmacia, Sweden) at respective concentrations of 16, 8, and 4 μg/ml. Control lymphocyte cultures were grown in basal medium only. The cells were then incubated at 37° C., 5% CO2 and 95% humidity for 2 days, followed by the addition of tritium labelled thymidine. After 16 hours the samples were prepared for the measurement in a β-counter. The results were expressed as incorporation indexes with respect to the control group of the animals.

lymphocytes B = assay: Determination of haemolytic plaques for the assessment of the maturation of lymphocytes B; format: in vivo, female HAN-NmRI strain mice; conditions: 1 μg/mouse one day after sheep erythrocytes i.p.; control 86±12.7
Experimental: as §1
A 1% suspension of sheep erythrocytes (Institute of Microbiology, Faculty of Medicine, Ljubljana, Yugoslavia) in physiological saline was used for the immunisation. First, individual mice were administered 0.2 ml of this suspension by i.p. injection, followed next day by 0.1 ml (1 μg/mouse) of the test substance. The immunisation was completed on the fifth day after the administration of sheep erythrocytes and the mice were sacrificed.
Their spleens were removed and homogenized in Parker 199 Medium with added amminoacids, streptomycin and sodium carbonate (Torlak, Beograd, Yugoslavia). The lymphocytes were separated on the Ficol Separating Medium (Pharmacia, Uppsala, Sweden). After repeated rinsing with Parker 199 Medium, the cells were resuspended in RPMI 1640 nutrient medium with added 10% of fetal calf serum and streptomycin. To 50 μl of the cell suspension, 450 μl of trypan blue were added and the cells were counted in Neubauer's chamber. The number of lymphocytes per ml of the cell suspension was calculated. […] After the completion of the incubation, the plaques were counted under microscope.
The number of plaques per 1×10^6 cells was calculated according to the following equations: [formula]

peritoneal macrophages [3] = assay: Activation of peritoneal macrophages with additional in vitro stimulation with PMA (ferricytochrome C reduction); format: in vivo, female HAN-NmRI strain mice; conditions: for increase of macrophage activity: versus control
Experimental: as §1, §2
(§3) The peritoneal cavity of the animals was rinsed with 4 ml of ice-cold RPMI 1640 medium. The cytolysis of erythrocytes was effected with 0.2% NaCl. The remaining cells were washed twice in a cooled centrifuge at 4° C. and 1500 rpm for 5 minutes with ice-cold RPMI 1640 medium. The cells were re-suspended and the concentration was adjusted to 1.5×10^6/ml. The cell suspension was distributed among the flat bottom wells of a microtitration plate (T grade, Nunc, Denmark). After incubating for 2 hours at 37° C., 5% CO2 and 95% humidity, the wells were rinsed with warm RPMI 1640 medium and the adhering macrophages were used for testing.
(§4) After incubating for 90 minutes at 37° C., 5% CO2 and 95% humidity, the absorbance was measured at the wavelength of 570 nm.
(§5) The results are shown in Table 2 as the difference in the absorbance of the test sample and of the blank, calculated for 1 mg of cell protein.

peritoneal macrophages [4] = assay: Activation of peritoneal macrophages without additional in vitro stimulation with PMA (ferricytochrome C reduction); format: in vivo, female HAN-NmRI strain mice; conditions: for increase of macrophage activity: versus control
Experimental: as §1, §2, §3, §4, §5

[5] = Toxicity, average lethal dose (LD50); format: in vivo
peritoneal macrophages [6] = assay: Determination of the number of macrophages; format: in vivo, female HAN-NmRI strain mice; conditions: 25, 2.5 and 0.25 μg on 3 consecutive days; peritoneal cavity washings three days after thioglycolate stimulation
Experimental: as §1, §2
The number of macrophages in the peritoneal cavity washings was determined three days after the stimulation with Brewer's thioglycolate medium. The cells were suspended in ice-cold RPMI 1640 medium, to which trypan blue was added, and counted in Neubauer's chamber.

Fibrosarcoma SA-1 = assay: Antitumour activity, tumour growth delay; format: in vivo, A/J strain mice; conditions: for Time needed for the tumour growth to the volume of 150 mm^3, Number of days (± SD) / Growth delay (± SD): 5 doses; for Time needed for the tumour growth to the volume of 150 mm^3, Number of days (± SD): control 5.5 ± 0.8; for Growth delay (± SD): versus control group
Experimental: The studies were performed on A/J strain mice (Institute Rudjer Boskovic, Zagreb, Yugoslavia) of 8 to 10 weeks. All animals used in the same experiment were of the same sex and age.
Fibrosarcoma SA-1 was used as the experimental tumour model. Tumorous cells were obtained from the ascitic form of the SA-1 tumour of the syngeneic A/J mouse. They were implanted into animals dorsilaterally by s.c. injection of 5×10^5 live tumour cells. The testing was started after the tumours had grown to a volume of 35 mm^3. The test substance was injected i.p. on five consecutive days in a dose of 2.5 or 25 μg. The growth of the tumours was monitored by measuring the diameters and the thickness of the tumours. The tumour volumes were calculated according to the formula 0.523×a×b×c (a, b and c being the tumour diameters).
The delay in the growth of each individual tumour was obtained by deducting the relevant time of growth of the tumour in the control group from the time needed for the growth of the tumour to reach the volume of 150 mm^3.

[7] = Pyrogenous activity according to the method of USP XXII; format: in vivo
Experimental: The pyrogenous activity was determined according to the method of USP XXII.

[8] = daily dose 0.25 μg for 3 consecutive days
[9] = daily dose 2.5 μg for 3 consecutive days
[10] = daily dose 25 μg for 3 consecutive days

CC(=O)CCCCCC(=O)N[C@@H](C)C(=O)N[C@H](CCC(=O)O)C(N)=O [Compound 1, N-(7-oxooctanoyl)-L-alanyl-D-isoglutamine]
number of splenic lymphocytes B [1]: Neither the number of splenic lymphocites B nor of lymphocytes T was altered to a statistically significant extent
number of splenic lymphocytes T [1]: Neither the number of splenic lymphocites B nor of lymphocytes T was altered to a statistically significant extent
Amount of active thymidine incoporated in lymphocyte DNA (cpm), x ± s.e.m [2, 8]: 16860 ± 5210 cpm
Amount of active thymidine incoporated in lymphocyte DNA (cpm), x ± s.e.m [2, 9]: 19080 ± 5470 cpm
Amount of active thymidine incoporated in lymphocyte DNA (cpm), x ± s.e.m [2, 10]: 16380 ± 2950 cpm
immunomodulatory effect in lymphocytes T compared with MDP ([2]; dose of 25 μg): statistically greater
increase of the blastic activity of lymphocytes T ([2]; dose of 25 μg, concanavalin A, versus control, p<0.05): about 70%
number of plaques (per 1×10^6 cells), x±s.e.m (lymphocytes B): 170±39.9 and 245±75.5
Difference in absorbancies of the test sample and of the blank per mg of cell protein, x ± s.e.m (peritoneal macrophages [3]; [8]): 1480 ± 336
Difference in absorbancies of the test sample and of the blank per mg of cell protein, x ± s.e.m (peritoneal macrophages [3]; [9]): 1630 ± 297
Difference in absorbancies of the test sample and of the blank per mg of cell protein, x ± s.e.m (peritoneal macrophages [3]; [10]): 2200 ± 177
increase of macrophage activity (peritoneal macrophages [3]; dose 0.25 μg (lowest dose)): about 50%
increase of macrophage activity (peritoneal macrophages [3]; dose 2.5 μg): about 60%
increase of macrophage activity (peritoneal macrophages [3]; dose 25 μg): about 120%
difference in macrophage activation between muramyl dipeptide and compound 1 (peritoneal macrophages [3]; doses of 2.5 and 25 μg, p>0.05): no statistically significant difference
dose dependence of macrophage activation (peritoneal macrophages [4]; 0.25 to 25 μg): dose-dependent
Difference in absorbancies of the test sample and of the blank per mg of cell protein, x ± s.e.m (peritoneal macrophages [4]; daily dose 0.25 μg): 273 ± 40
Difference in absorbancies of the test sample and of the blank per mg of cell protein, x ± s.e.m (peritoneal macrophages [4]; daily dose 2.5 μg): 387 ± 56
Difference in absorbancies of the test sample and of the blank per mg of cell protein, x ± s.e.m (peritoneal macrophages [4]; daily dose 25 μg): 518 ± 20
increase of macrophage activity (peritoneal macrophages [4]; dose 0.25 μg): did not increase the activity
increase of macrophage activity (peritoneal macrophages [4]; dose 2.5 μg): 40%
increase of macrophage activity (peritoneal macrophages [4]; dose 25 μg): 90%
difference in macrophage activation between muramyl dipeptide and compound 1 (peritoneal macrophages [4]; doses of 2.5 and 25 μg, p>0.05): no statistically significant difference
factor by which the immunologically effective dose is lower than LD50 ([5]; all described immunological effects): at least 2000 times
average lethal dose (LD50) ([5]; i.v. application, male mice): > 250 mg/kg
number of peritoneal macrophages (peritoneal macrophages [6]): not altered to a statistically significant extent
Time needed for the tumour growth to the volume of 150 mm^3, Number of days (± SD) (Fibrosarcoma SA-1; 2.5 μg daily i.p.): 7.3 ± 1.5 days
Growth delay (± SD) (Fibrosarcoma SA-1; 2.5 μg daily i.p.): 1.8 ± 0.5
Time needed for the tumour growth to the volume of 150 mm^3, Number of days (± SD) (Fibrosarcoma SA-1; 25.0 μg daily i.p.): 7.0 ± 1.7 days
Growth delay (± SD) (Fibrosarcoma SA-1; 25.0 μg daily i.p.): 1.5 ± 0.5
difference in antitumour activity between the higher and the lower dose (Fibrosarcoma SA-1; 25 μg versus 2.5 μg): no statistically significant difference
antitumour activity in comparison to the control (Fibrosarcoma SA-1; dose of 2.5 μg and dose of 25 μg): moderate and statistically significant
pyrogenous activity [7]: did not show any pyrogenous activity

From patent US5514654A, “N-acyldipeptides, processes for the preparation thereof and pharmaceutical compositions containing the same” (priority 1990, dated 1996)
